This is an account of results in patent US12496297B1, “Compositions of autophagy modulating agents and uses thereof” (Washington University, priority 2020, dated 2025).

Test [1] has as its system α1-antitrypsin Z variant (ATZ). The test can be described thus: Steady state levels of ATZ in HTO/Z cell line (immunoblot); activity of G2 analogs. Format: cell-based, human. As to conditions: for Activity: G2 and G2 analogs, positive activity if shown to have any activity, not quantified. Here is the method:
For experiments with G2 analogs, Tet-off inducible cell lines were cultured in absence of doxycycline for at least 12 days to ensure expression of […] or its variants. The cells were then sub-cultured into separate monolayers in fresh complete growth medium and incubated for 48 hours in the absence or presence of G2 analog. […] All compounds available commercially were purchased except for G2-22, which was synthesized with routine chemistry.
Cells were lysed in NP40 buffer and then separated into insoluble and soluble fractions according to a previously established technique. Samples were subjected to immunoblot analysis for AT and GAPDH. For immmunoblot analysis to detect AT or GAPDH, cells were lysed in 50 mM Tris-HCl, 150 mM NaCl, 1% NP-40, pH 8.0. Protein concentrations were determined by BCA protein assay (Pierce Biotechnology, Rockford, IL). […] The membranes were blocked in 5% milk and then incubated overnight at 4° C. with primary antibody for AT (1:1000, Diasorin), LC3 (1:2000, Sigma), p62 (1:1000, Cell signaling, Danvers, MA), ATG5 (1:1000, Cell signaling), mTOR substrate sampler (1:1000 for all antibodies, Cell signaling). Donkey anti-goat Ig (Jackson Labs, Bar Harbor, ME), goat anti-rabbit lg (1:50,000), or goat anti-mouse Ig (1:50,000) were used as secondary antibodies in TBST at RT, 1 hour. Blots were visualized with ECL or West Femto from Pierce. Membranes were re-probed with GAPDH (1:5000, Sigma) as loading control. Insoluble samples were stained with Gel Code Blue as loading control.
For orientation: Immunoblotting shows a protein as a band on a membrane.

A further test concerns PiZ mouse model of ATD. The test can be described thus: PiZ mouse model of ATD, oral gavage. Format: in vivo. Here is the method: The PiZ mouse model has been described previously (Hidvegi 2010 Science 329 (5988): 229-232). For experiments involving drug administration in mice in vivo, doses of 5-50 mg/kg/day for the G2 analog were given for 3 weeks, and then liver histological and biochemical characteristics were assessed exactly as previously described (Hidvegi 2005J Biol Chem 280 (47): 39002-39015). Each experimental group contained 4-6 four- to six-month old male mice randomly chosen from littermates. G2 analogs were delivered by oral gavage. Control mice were littermates given DMSO by gavage. The outcome was determined by evaluating 1) the hepatic ATZ load by immunoblotting with anti-AT, immunostaining with PAS/D; 2) hepatic fibrosis using Sirius Red staining; 3) autophagy by immunoblotting with anti-LC3 and anti-p62, and imaging for GFP+autophagosomes; 4) monitoring blood glucose levels by glucometer and blood insulin levels by ELISA Wide Range Assay (CrystalChem). For immunostaining, liver samples were fixed in 10% Formalin, followed by staining with PAS after diastase and Sirius Red using standard techniques. Quantitative evaluation of immunostaining and histochemical staining was carried out by a member of the team that was blinded to group allocation. Blood glucose and insulin levels were quantified as previously described (Wang 2019 PLOS One 14: e0209748).
For immunoblot analysis of proteins in liver, the liver was snap frozen in liquid nitrogen and stored at −80° C. Liver was homogenized in 50 mM Tris-HCl pH 8.0, 150 mM NaCl, 2 mM KCl, 2 mM MgCl2, 0.5% Triton X-100, 0.5% deoxycholic acid containing 0.1 mM […] and Complete protease inhibitor cocktail from Roche. Total protein concentration was measured by BCA assay (Pierce) and followed by western blotting as described previously.

Test [2] concerns misfolded ATZ. As to conditions: mammalian cell models of ATD; previously shown; cited from earlier work.
Test [3] has as its system HTT inclusion bodies (IBs) in HD-MSNs. The test can be described thus: HTT inclusion bodies / mHTT aggregation in HD-MSNs. As to conditions: HD-MSNs from three patients, 0.5 μM vs DMSO, PID30, FIG. 18K. Format: cell-based, human. How it is done:
Adult dermal fibroblasts from symptomatic HD patients (Coriell NINDS and NIGMS Repositories: ND33947, ND30013, GM02173, GM04230, GM04198, GM02147), presymptomatic HD patients (GM04717, GM04861, GM04855, GM04831, GM04857, GM04829), and healthy controls (GM02171) were acquired from the Coriell Institute for Medical Research. The lentiviral cocktail of rtTA, pTight-9-124-BclxL, CTIP2, MYT1L, DLX1, and DLX2 was added to human fibroblasts for 16 h, then cells were washed and fed with fibroblasts media containing 1 μg/mL doxycycline (DOX). Briefly, transduced fibroblasts were maintained in fibroblasts media for two days with doxycycline before selection with Puromycin ([…]) on day 3, then were plated onto poly-ornithine, fibronectin, and laminin-coated coverslips on day 5. Cells were subsequently maintained in NeurobasalA (Gibco) media containing B-27 plus supplement and GlutaMAX supplemented with valproic acid (1 mM), dibutyryl cAMP ([…]), BDNF (10 ng/ml), NT-3 (10 ng/ml), and RA ([…]) until day 13. […]
Reprogramming cells were fixed with 4% paraformaldehyde (Electron Microscopy Sciences, #15710) for 20 min at room temperature (RT), and then permeabilized with 0.2% Triton X-100 for 10 min at RT. […] Images were captured using a Leica SP5X white light laser confocal system with Leica Application Suite (LAS) Advanced Fluorescence 2.7.3.9723.

In test [4] the test system is HD-MSNs. The test can be described thus: Autophagy measurement in HD-MSNs (p62 immunoblot, CYTO-ID green). Format: cell-based, human. As to conditions: 0.5 μM vs DMSO. Here is the method: To test whether the differentially expressed genetic pathways between pre-HD-MSNs and HD-MSNs would be reflected at the cellular level, whether the autophagy activity would be different between pre-HD- and HD-MSNs was assessed. CYTO-ID assay, a fluorescence-based live-cell assay for accumulated autophagic vacuoles was performed as well as immunoblot for p62/SQSTM1 expression, a marker used to monitor autophagic activity due to its binding to LC3 and degradation by autophagy.
(§1) Adult dermal fibroblasts from symptomatic HD patients (Coriell NINDS and NIGMS Repositories: ND33947, ND30013, GM02173, GM04230, GM04198, GM02147), presymptomatic HD patients (GM04717, GM04861, GM04855, GM04831, GM04857, GM04829), and healthy controls (GM02171) were acquired from the Coriell Institute for Medical Research. The lentiviral cocktail of rtTA, pTight-9-124-BclxL, CTIP2, MYT1L, DLX1, and DLX2 was added to human fibroblasts for 16 h, then cells were washed and fed with fibroblasts media containing 1 μg/mL doxycycline (DOX). […]
Cells were lysed in a 2% SDS buffer. The concentrations of whole-cell lysates were measured using the Pierce BCA protein assay kit (Thermo Scientific, #23227). […]

The test system of test [5] is HD-MSNs. The test can be described thus: Neuronal cell death assay in HD-MSNs (SYTOX, Caspase-3/7, Annexin V). Format: cell-based, human. How it is done: as §1
0.1 μM SYTOX gene nucleic acid stain (Invitrogen, S7020) and 1 μl/mL of Hoeschst 33342 (Thermo Scientific, 66249) were added into cell medium. […] Images were taken using Leica DMI 4000B inverted microscope with Leica Application Suite (LAS) Advanced Fluorescence.
Cells were treated with 1× Essen Bioscience IncuCyte® Caspase-3/7 Green Reagent (final concentration 5 µM) and 1× Essen Bioscience IncuCyte® Annexin V Green or Red Reagent on day 22 or 26. […] Images were analyzed for the number of green or red objects per well. For the apoptotic index, the number of green or red objects (i.n., fluorescence cells) divided by phase area (μm2) per well was quantified by the IncuCyte® S3 Live-Cell Analysis System.

For test [6], the system named is α1-antitrypsin Z variant (ATZ). The test can be described thus: Steady state levels of ATZ in HTO/Z cell line (immunoblot); activity of G2 analogs. Format: cell-based, human. The following applies: 24 hr treatment, 0.5 and 2.5 μM, FIG. 22C.
For test [7], the system named is C. elegans model of ATD (sGFP::ATZ). The test can be described thus: Quantification of ATZ accumulation in C. elegans model of ATD (Z worm). Format: in vivo. The following applies: GB administered to ATD C. elegans model. How it is done: The C. elegans strain VK1882 (vkls1882 [nhx-2p::sGFP::ATZ; myo-2p::mCherry) was routinely cultured at 20° C. on nematode growth medium plates seeded with E. coli strain OP50. Quantitative analysis of ATZ accumulation was carried out by detection of fluorescence using the Thermofisher CellInsight CX-7 high content imager as previously described. L4 stage animals were placed into wells of 384-well plates (30 per well) containing G2 analogs or an equivalent volume of DMSO. Following incubation at 20° C. for 24 hours, sodium azide was added to a final concentration of […] to anesthetize the animals and then each well was imaged on the CX-7 high content imager for quantification.

Test [8] deals with misfolded ATZ. The test can be described thus: Autophagic degradation of ATZ in mammalian cell line model of ATD. Format: cell-based. The following applies: effect blocked when autophagy gene ATG14 was deleted.
Setting [9] is: PiZ mouse, marker of autophagic activity.

Like-named read-outs stand apart in the source and are kept apart here.

Regarding `COc1ccc(Cl)cc1C(N)=O` [G2, 5-chloro-2-methoxybenzamide], the outcome in test [1] was Active. For the same compound, in the test on PiZ mouse model of ATD (PiZ mouse), the “hepatic ATZ load” value is recorded as “significant reduction of hepatic ATZ load” and the insulin secretion entry is on record as “without affecting insulin secretion”. In the test on PiZ mouse model of ATD (setting [9]), the “LC3-II conversion in the liver” value is given as “increased LC3-II conversion” and the “p62 levels in the liver” value is given as “decreased p62 levels”. The “hepatic / liver fibrosis (Sirius Red staining)” value in the test on PiZ mouse model of ATD (PiZ mouse, G2-19: 3 weeks of treatment vs placebo) is reported as “significant reduction”. The liver damage entry in the test on PiZ mouse model of ATD (mouse model of ATD) is given as “reverse liver damage”. Further, in the test on misfolded ATZ [2], the “autophagic degradation of misfolded ATZ” value is recorded as “promoted autophagic degradation”.
What is called IC50 is the midpoint of a concentration-inhibition curve. With `O=c1ccc2c(Cl)cc(Cl)cc2[nH]1` [G2-115, 5,7-dichloroquinolin-2(1H)-one], the outcome in [1] was Active. In test [1] (TABLE 1, assay not given), this compound had a half-maximal inhibitory concentration (IC50) of 100 to 1000 nM. Further, the mHTT aggregation entry in test [3] was “significantly lower levels of mHTT aggregation”. Besides, in the test with HD-MSNs [4] (PID26, FIG. 18F), the “p62/SQSTM1 protein levels (immunoblot)” value was “decrease in p62/SQSTM1 protein levels”. Besides, the “CYTO-ID signal (autophagic vacuoles)” value in the test with HD-MSNs [4] (PID 26, FIG. 18G) is reported as “increase in CYTO-ID signal”. In addition, the “MSN death by Caspase 3/7 activation and Annexin V signals” value in the test with HD-MSNs [5] (HD.40-MSNs three concentrations PID 30 (FIG. 18I), three patients 0.5 μM (FIG. 18J)) is on record as “significant reduction in MSN death in a dose-dependent manner”. Besides, the “MSN death measured by SYTOX” value with HD-MSNs [5] (HD.44-MSNs, 0.125, 0.25, or 0.5 µM, PID 35, FIG. 18H) was “significant reduction in MSN death in a dose-dependent manner”. For the same compound, the “steady-state levels of ATZ” value in test [6] is listed as “decreased the steady-state levels of ATZ”.
For the compound `COc1ccc(Cl)cc1C(=O)NCCc1ccc(S(=O)(=O)NC(=O)NC2CCCCC2)cc1` [GB, 5-chloro-N-(4-(N-(cyclohexylcarbamoyl)sulfamoyl)phenethyl)-2-methoxybenzamide, reference compound], the “accumulation of misfolded, aggregated ATZ” value in test [7] is recorded as “reduced accumulation of misfolded, aggregated ATZ”. In the test with misfolded ATZ [8], the “autophagic degradation of misfolded ATZ” value was “enhances the autophagic degradation of misfolded ATZ”.
